Data published in patent US20260374756A1, “HETEROCYCLIC COMPOUNDS AS INHIBITORS OF MONOACYLGLYCEROL LIPASE (MAGL)” (Hoffmann-La Roche Inc., priority 2022, published 2026).

Molecular target: T1, hMAGL (Homo sapiens, UniProt Q99685)
T1 sequence (Q99685 1-303): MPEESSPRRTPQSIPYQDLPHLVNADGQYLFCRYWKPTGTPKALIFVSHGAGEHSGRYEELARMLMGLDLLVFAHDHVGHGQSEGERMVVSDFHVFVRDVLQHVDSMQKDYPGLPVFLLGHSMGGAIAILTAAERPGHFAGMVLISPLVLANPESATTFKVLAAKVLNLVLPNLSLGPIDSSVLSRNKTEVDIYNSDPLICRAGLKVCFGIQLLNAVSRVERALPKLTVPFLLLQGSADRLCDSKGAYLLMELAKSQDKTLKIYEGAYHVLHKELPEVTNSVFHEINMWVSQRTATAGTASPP
Assay: 2-AG assay: MAGL inhibition, hydrolysis of 2-arachidonoylglycerol to arachidonic acid followed by mass spectrometry
Assay type: biochemical
How it was run: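 Read-out is LC-MS/MS of arachidonic acid released from 2-arachidonoylglycerol (8 μM final), normalised to d8-arachidonic acid internal standard after acetonitrile quench. Enzyme […] and compound were pre-mixed 15 min, then reacted 30 min, both at RT, in Tris/EDTA buffer with 0.01% Tween-20 and 2.5% DMSO.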

Compound	IC50 [nM]
O=C(N1CC2(CC(n3cnc(C(F)(F)F)n3)C2)C1)N1CC2(CN(Cc3cnn(CC(F)(F)F)c3)C2)C1 [Example 109, [6-[[1-(2,2,2-trifluoroethyl)pyrazol-4-yl]methyl]-2,6-diazaspiro[3.3]heptan-2-yl]-[6-[3-(trifluoromethyl)-1,2,4-triazol-1-yl]-2-azaspiro[3.3]heptan-2-yl]methanone]	1380
O=C(N1CC2(CC(n3cnc(C(F)(F)F)n3)C2)C1)N1CC2(CN(Cc3nc(C4CC4)ns3)C2)C1 [Example 43, [6-[(3-cyclopropyl-1,2,4-thiadiazol-5-yl)methyl]-2,6-diazaspiro[3.3]heptan-2-yl]-[6-[3-(trifluoromethyl)-1,2,4-triazol-1-yl]-2-azaspiro[3.3]heptan-2-yl]methanone]	23.1
O=C(N1CC2(CC(n3cnc(C(F)(F)F)n3)C2)C1)N1CC2(CN(Cc3cn[nH]c3C(F)(F)F)C2)C1 [Example 49, [6-[[5-(trifluoromethyl)-1H-pyrazol-4-yl]methyl]-2,6-diazaspiro[3.3]heptan-2-yl]-[6-[3-(trifluoromethyl)-1,2,4-triazol-1-yl]-2-azaspiro[3.3]heptan-2-yl]methanone]	47.8
O=C(N1CC2(CC(n3cnc(C(F)(F)F)n3)C2)C1)N1CC2(CN(Cc3cc(C(F)(F)F)no3)C2)C1 [Example 183, [6-[[3-(trifluoromethyl)isoxazol-5-yl]methyl]-2,6-diazaspiro[3.3]heptan-2-yl]-[6-[3-(trifluoromethyl)-1,2,4-triazol-1-yl]-2-azaspiro[3.3]heptan-2-yl]methanone]	28.4
O=C(N1CC2(CC(Cc3nc(C(F)(F)F)no3)C2)C1)N1CC2(CC(n3cnc(C4(O)CC4)n3)C2)C1 [Example 138]	18.1
O=C(N1CC2(CC(n3cnc(C(F)(F)F)n3)C2)C1)N1CC2(CN(Cc3ncc(C(F)(F)F)[nH]3)C2)C1 [Example 231, [6-[[5-(trifluoromethyl)-1H-imidazol-2-yl]methyl]-2,6-diazaspiro[3.3]heptan-2-yl]-[6-[3-(trifluoromethyl)-1,2,4-triazol-1-yl]-2-azaspiro[3.3]heptan-2-yl]methanone]	260
O=C(N1CC2(CCN(Cc3cc(C(F)(F)F)sn3)CC2)C1)N1CC2(CC(n3cnc(C4(O)CC4)n3)C2)C1 [Example 48, [6-[3-(1-hydroxycyclopropyl)-1,2,4-triazol-1-yl]-2-azaspiro[3.3]heptan-2-yl]-[7-[[5-(trifluoromethyl)isothiazol-3-yl]methyl]-2,7-diazaspiro[3.5]nonan-2-yl]methanone]	42.9
O=C(N1CC2(CC(n3cnc(C(F)(F)F)n3)C2)C1)N1CC2(CN(Cc3nc(C4CC4)cs3)C2)C1 [Example 239, [6-[(4-cyclopropylthiazol-2-yl)methyl]-2,6-diazaspiro[3.3]heptan-2-yl]-[6-[3-(trifluoromethyl)-1,2,4-triazol-1-yl]-2-azaspiro[3.3]heptan-2-yl]methanone]	18.5
O=C(N1CC2(CC(n3cnc(C(F)F)n3)C2)C1)N1CC2(CN(Cc3cc(C(F)(F)F)n[nH]3)C2)C1 [Example 311, [6-[3-(difluoromethyl)-1,2,4-triazol-1-yl]-2-azaspiro[3.3]heptan-2-yl]-[6-[[3-(trifluoromethyl)-1H-pyrazol-5-yl]methyl]-2,6-diazaspiro[3.3]heptan-2-yl]methanone]	190
Cn1c(CN2CC3(C2)CN(C(=O)N2CC4(CC(n5cnc(C(F)(F)F)n5)C4)C2)C3)nnc1C(F)(F)F [Example 314, [6-[[4-methyl-5-(trifluoromethyl)-1,2,4-triazol-3-yl]methyl]-2,6-diazaspiro[3.3]heptan-2-yl]-[6-[3-(trifluoromethyl)-1,2,4-triazol-1-yl]-2-azaspiro[3.3]heptan-2-yl]methanone]	123
Cn1cc(CN2CC3(C2)CN(C(=O)N2CC4(CC(n5cnc(C(F)(F)F)n5)C4)C2)C3)c(C(F)(F)F)n1 [Example 191, [6-[[1-methyl-3-(trifluoromethyl)pyrazol-4-yl]methyl]-2,6-diazaspiro[3.3]heptan-2-yl]-[6-[3-(trifluoromethyl)-1,2,4-triazol-1-yl]-2-azaspiro[3.3]heptan-2-yl]methanone]	154
CC(C)(C)c1c[nH]c(CN2CC3(C2)CN(C(=O)N2CC4(CC(n5cnc(C(F)(F)F)n5)C4)C2)C3)n1 [Example 252, [6-[(4-tert-butyl-1H-imidazol-2-yl)methyl]-2,6-diazaspiro[3.3]heptan-2-yl]-[6-[3-(trifluoromethyl)-1,2,4-triazol-1-yl]-2-azaspiro[3.3]heptan-2-yl]methanone]	117

The next compounds have a lower IC50 than those just listed; values first:

IC50 [nM]	Compound
11.5	CS(=O)(=O)c1cnn(CC2CC3(C2)CN(C(=O)N2CC4(CC(n5cnc(C6CC6)n5)C4)C2)C3)c1 [Example 332, [6-(3-cyclopropyl-1,2,4-triazol-1-yl)-2-azaspiro[3.3]heptan-2-yl]-[6-[(4-mesylpyrazol-1-yl)methyl]-2-azaspiro[3.3]heptan-2-yl]methanone]
9.06	O=C(N1CC2(CC(Cc3n[nH]c(C4(C(F)(F)F)CC4)n3)C2)C1)N1CC2(CC(n3cnc(C(F)F)n3)C2)C1 [Example 335, [6-[3-(difluoromethyl)-1,2,4-triazol-1-yl]-2-azaspiro[3.3]heptan-2-yl]-[6-[[5-[1-(trifluoromethyl)cyclopropyl]-1H-1,2,4-triazol-3-yl]methyl]-2-azaspiro[3.3]heptan-2-yl]methanone]
8.91	O=C(N1CC2(CC(Cc3cn(CC(F)(F)F)nn3)C2)C1)N1CC2(CC(n3cnc(C(F)(F)F)n3)C2)C1 [Example 336, [6-[[1-(2,2,2-trifluoroethyl)triazol-4-yl]methyl]-2-azaspiro[3.3]heptan-2-yl]-[6-[3-(trifluoromethyl)-1,2,4-triazol-1-yl]-2-azaspiro[3.3]heptan-2-yl]methanone]
8	O=C(N1CC2(CC(n3cnc(C4CC4)n3)C2)C1)N1CC2(CN(Cc3cc(C4CC4)n[nH]3)C2)C1 [Example 283, [6-[(3-cyclopropyl-1H-pyrazol-5-yl)methyl]-2,6-diazaspiro[3.3]heptan-2-yl]-[6-(3-cyclopropyl-1,2,4-triazol-1-yl)-2-azaspiro[3.3]heptan-2-yl]methanone]
4.46	Cn1ncc(CN2CC3(C2)CN(C(=O)N2CC4(CC(n5cnc(C6CC6)n5)C4)C2)C3)c1C(F)(F)F [Example 165, [6-(3-cyclopropyl-1,2,4-triazol-1-yl)-2-azaspiro[3.3]heptan-2-yl]-[6-[[1-methyl-5-(trifluoromethyl)pyrazol-4-yl]methyl]-2,6-diazaspiro[3.3]heptan-2-yl]methanone]
4.12	CC(C)(C)c1coc(CN2CC3(C2)CN(C(=O)N2CC4(CC(n5cnc(C(F)(F)F)n5)C4)C2)C3)n1 [Example 97, [6-[(4-tert-butyloxazol-2-yl)methyl]-2,6-diazaspiro[3.3]heptan-2-yl]-[6-[3-(trifluoromethyl)-1,2,4-triazol-1-yl]-2-azaspiro[3.3]heptan-2-yl]methanone]
3.26	O=C(N1CC2(CC(Cc3cc(C4CC4)[nH]n3)C2)C1)N1CC2(CC(n3cnc(C(F)F)n3)C2)C1 [Example 342, [6-[(5-cyclopropyl-1H-pyrazol-3-yl)methyl]-2-azaspiro[3.3]heptan-2-yl]-[6-[3-(difluoromethyl)-1,2,4-triazol-1-yl]-2-azaspiro[3.3]heptan-2-yl]methanone]
2.43	Cn1nc(C(F)(F)F)cc1CC1CC2(C1)CN(C(=O)N1CC3(CC(n4cnc(C5(O)CC5)n4)C3)C1)C2 [Example 288, [6-[3-(1-hydroxycyclopropyl)-1,2,4-triazol-1-yl]-2-azaspiro[3.3]heptan-2-yl]-[6-[[2-methyl-5-(trifluoromethyl)pyrazol-3-yl]methyl]-2-azaspiro[3.3]heptan-2-yl]methanone]
2.25	O=C(N1CC2(CC(Cc3cc(C4CC4)n[nH]3)C2)C1)N1CC2(CC(n3cnc(C4(O)CC4)n3)C2)C1 [Example 125, [6-[(3-cyclopropyl-1H-pyrazol-5-yl)methyl]-2-azaspiro[3.3]heptan-2-yl]-[6-[3-(1-hydroxycyclopropyl)-1,2,4-triazol-1-yl]-2-azaspiro[3.3]heptan-2-yl]methanone]
1.63	O=C(N1CC2(CC(Cn3cc(C(F)(F)F)nn3)C2)C1)N1CC2(CC(c3cc(C4CC4)n[nH]3)C2)C1 [Example 103, [6-(3-cyclopropyl-1H-pyrazol-5-yl)-2-azaspiro[3.3]heptan-2-yl]-[6-[[4-(trifluoromethyl)triazol-1-yl]methyl]-2-azaspiro[3.3]heptan-2-yl]methanone]
1.02	N=S(=O)(c1cnn(CC2CC3(C2)CN(C(=O)N2CC4(CC(n5cnc(C6CC6)n5)C4)C2)C3)c1)C(F)(F)F (stereo not shown) [Example 349, [6-(3-cyclopropyl-1,2,4-triazol-1-yl)-2-azaspiro[3.3]heptan-2-yl]-[6-[[4-(trifluoromethylsulfonimidoyl)pyrazol-1-yl]methyl]-2-azaspiro[3.3]heptan-2-yl]methanone]
0.92	O=C(N1CC2(CC(Cc3cnn(CC(F)(F)F)n3)C2)C1)N1CC2(CC(n3cnc(C4CC4)n3)C2)C1 [Example 350, [6-(3-cyclopropyl-1,2,4-triazol-1-yl)-2-azaspiro[3.3]heptan-2-yl]-[6-[[2-(2,2,2-trifluoroethyl)triazol-4-yl]methyl]-2-azaspiro[3.3]heptan-2-yl]methanone]
0.47	O=C(N1CC2(CC(Cc3cc(C(F)(F)F)nn3CC(F)(F)F)C2)C1)N1CC2(CC(n3cnc(C(F)(F)F)n3)C2)C1 [Example 140, [6-[[2-(2,2,2-trifluoroethyl)-5-(trifluoromethyl)pyrazol-3-yl]methyl]-2-azaspiro[3.3]heptan-2-yl]-[6-[3-(trifluoromethyl)-1,2,4-triazol-1-yl]-2-azaspiro[3.3]heptan-2-yl]methanone]
